Values quoted from earlier work, collected in patent US20040259834A1, “Therapeutic composition containing at least diflomotecan and capecitabine” (priority 2003, published 2004).

Columns and labels:
various xenografts = various xenografts growing in nude mice
[1] = 7-membered β-hydroxylactone ring, more stable lactone form

plasma stability [1]: greater plasma stability
SMILES: CC[C@@]1(O)CC(=O)OCc2c1cc1n(c2=O)Cc2cc3cc(F)c(F)cc3nc2-1 [Diflomotecan]
activity against xenografts (various xenografts): excellent activity
